This is an account of results in patent US10064873B2, “Compounds and compositions for treating HIV with derivatives of Betulin” (GlaxoSmithKline LLC, priority 2011, dated 2018).

Usually EC50 stands for the concentration that produces a half-maximal response.

For the first assay, the system named is HIV NL4-3 wt. In words: MT4 antiviral assay, NL4-3 strain wild type. Type of assay: cell-based, HIV-1. Conditions: Human immunodeficiency virus 1, NL43, MT4, read-out: EC50 NL4-3 wt (nM).
With `CC(C)C1=C2[C@H]3CC[C@@H]4[C@@]5(C)CC[C@H](OC(=O)CC(C)(C)C(=O)O)C(C)(C)[C@@H]5CC[C@@]4(C)[C@]3(C)CC[C@@]2([C@@H]2CN(C3(c4ncc(Cl)cn4)CC3)C(=O)O2)CC1=O` [Example 61, 4-(((3aR,5aR,5bR,7aR,9S,11aR,11bR,13aS)-3a-((R)-3-(1-(5-chloropyrimidin-2-yl)cyclopropyl)-2-oxooxazolidin-5-yl)-1-isopropyl-5a,5b,8,8,11a-pentamethyl-2-oxo-3,3a,4,5,5a,5b,6,7,7a,8,9,10,11,11a,11b,12,13,13a-octadecahydro-2H-cyclopenta[a]chrysen-9-yl)oxy)-2,2-dimethyl-4-oxobutanoic acid], the EC50 came out at 130 nM.

Regarding `CC(C)C1=C2[C@H]3CC[C@@H]4[C@@]5(C)CC[C@H](OC(=O)CC(C)(C)C(=O)O)C(C)(C)[C@@H]5CC[C@@]4(C)[C@]3(C)CC[C@@]2(CCNC(=O)c2ccccc2)CC1=O` [Example 83, 2,2-dimethyl-4-oxo-4-{[(1R,2R,5R,10S,13R,14R, 17S,19R)-1,2,14,18,18-pentamethyl-7-oxo-5-[2-(phenylformamido)ethyl]-8-(propan-2-yl)pentacyclo[11.8.0.0^ {2,10}.0^{5,9}.0^{14,19}]henicos-8-en-17-yl]oxy)butanoic acid], the EC50 came to 7.3 nM.

For the compound `CC(=O)O[C@H](CNCc1cccc(Cl)c1)[C@@]12CC[C@]3(C)[C@H](CC[C@@H]4[C@@]5(C)CC[C@H](OC(=O)CC(C)(C)C(=O)O)C(C)(C)[C@@H]5CC[C@]43C)C1=C(C(C)C)C(=O)C2` [Example 39, 4-(((3aR,5aR,5bR,7aR,9S,11aR,11bR,13aS)-3a-((S)-1-Acetoxy-2-((3-chlorobenzyl)amino)ethyl)-1-isopropyl-5a,5b,8,8,11a-pentamethyl-2-oxo-3,3a,4,5,5a,5b,6,7,7a,8,9,10,11,11a,11b,12,13,13a-octadecahydro-2H-cyclopenta[a]chrysen-9-yl)oxy)-2,2-dimethyl-4-oxobutanoic acid], the EC50 worked out at 6.6 nM.

Still in this assay, the particulars now being: Human immunodeficiency virus 1, NL43; MT4 cells; read-out: EC50 NL4-3 wt.
Consider `CC(C)C1=C2[C@H]3CC[C@@H]4[C@@]5(C)CC[C@H](OC(=O)CC(C)(C)C(=O)O)C(C)(C)[C@@H]5CC[C@@]4(C)[C@]3(C)CC[C@@]2([C@H](O)CNCc2ccc(F)cc2)CC1=O` [Example 79, 4-(((3aR,5aR,5bR,7aR,9S,11aR,11bR,13aS)-3a-((S)-2-((4-fluorobenzyl)amino)-1-hydroxyethyl)-1-isopropyl-5a,5b,8,8,11a-pentamethyl-2-oxo-3,3a,4,5,5a,5b,6,7,7a,8,9,10,11,11a,11b,12,13,13a-octadecahydro-2H-cyclopenta[a]chrysen-9-yl)oxy)-2,2-dimethyl-4-oxobutanoic acid], for which the EC50 came to 14.7 nM.

For the compound `CC(C)C1=C2[C@H]3CC[C@@H]4[C@@]5(C)CC[C@H](OC(=O)CC(C)(C)CC(=O)O)C(C)(C)[C@@H]5CC[C@@]4(C)[C@]3(C)CC[C@@]2([C@@H](O)CN(CCN(C)C)Cc2ccc(Cl)cc2)CC1=O` [Example 22, 5-(((3aR,5aR,5bR,7aR,9S,11aR,11bR,13aS)-3a-((R)-2-((4-Chlorobenzyl)(2-(dimethylamino)ethyl)amino)-1-hydroxyethyl)-1-isopropyl-5a,5b,8,8,11a-pentamethyl-2-oxo-3,3a,4,5,5a,5b,6,7,7a,8,9,10,11,11a,11b,12,13,13a-octadecahydro-2H-cyclopenta[a]chrysen-9-yl)oxy)-3,3-dimethyl-5-oxopentanoic acid], the EC50 was 3.3 nM.

Consider `CC(C)C1=C2[C@H]3CC[C@@H]4[C@@]5(C)CC[C@H](OC(=O)CC(C)(C)C(=O)O)C(C)(C)[C@@H]5CC[C@@]4(C)[C@]3(C)CC[C@@]2([C@H](O)CN(CCN(C)C)Cc2cccc(Cl)c2)CC1=O` [Example 44, 4-(((3aR,5aR,5bR,7aR,9S,11aR,11bR,13aS)-3a-((S)-2-((3-Chlorobenzyl)(2-(dimethylamino)ethyl)amino)-1-hydroxyethyl)-1-isopropyl-5a,5b,8,8,11a-pentamethyl-2-oxo-3,3a,4,5,5a,5b,6,7,7a,8,9,10,11,11a,11b,12,13,13a-octadecahydro-2H-cyclopenta[a]chrysen-9-yl)oxy)-2,2-dimethyl-4-oxobutanoic acid], for which the EC50 stood at 1.8 nM.

With `CC(C)C1=C2[C@H]3CC[C@@H]4[C@@]5(C)CC[C@H](OC(=O)CC(C)(C)CC(=O)O)C(C)(C)[C@@H]5CC[C@@]4(C)[C@]3(C)CC[C@@]2([C@H](O)CN(CCN(C)C)Cc2ccc(Cl)cc2)CC1=O` [Example 23, 5-(((3aR,5aR,5bR,7aR,9S,11aR,11bR,13aS)-3a-((S)-2-((4-Chlorobenzyl)(2-(dimethylamino)ethyl)amino)-1-hydroxyethyl)-1-isopropyl-5a,5b,8,8,11a-pentamethyl-2-oxo-3,3a,4,5,5a,5b,6,7,7a,8,9,10,11,11a,11b,12,13,13a-octadecahydro-2H-cyclopenta[a]chrysen-9-yl)oxy)-3,3-dimethyl-5-oxopentanoic acid], the EC50 came to 4.9 nM.

For `CC(C)C1=C2[C@H]3CC[C@@H]4[C@@]5(C)CC[C@H](OC(=O)CC(C)(C)C(=O)O)C(C)(C)[C@@H]5CC[C@@]4(C)[C@]3(C)CC[C@@]2(CCNCc2ccc(Cl)cc2)CC1` [Example 66, 4-(((3aR,5aR,5bR,7aR,9S,11aR,11bR,13aS)-3a-(2-((4-chlorobenzyl)amino)ethyl)-1-isopropyl-5a,5b,8,8,11a-pentamethyl-3,3a,4,5,5a,5b,6,7,7a,8,9,10,11,11a,11b,12,13,13a-octadecahydro-2H-cyclopenta[a]chrysen-9-yl)oxy)-2,2-dimethyl-4-oxobutanoic acid], the EC50 amounted to 9.2 nM.

`CC(C)C1=C2[C@H]3CC[C@@H]4[C@@]5(C)CC[C@H](OC(=O)CC(C)(C)C(=O)O)C(C)(C)[C@@H]5CC[C@@]4(C)[C@]3(C)CC[C@@]2(CCN(CCN(C)C)C2(c3ccc(Cl)cc3)CC2)CC1=O` [Example 11, 4-(((3aR,5aR,5bR,7aR,9S,11aR,11bR,13aS)-3a-(2-((1-(4-Chlorophenyl)cyclopropyl)(2-(dimethylamino)ethyl)amino)ethyl)-1-isopropyl-5a,5b,8,8,11a-pentamethyl-2-oxo-3,3a,4,5,5a,5b,6,7,7a,8,9,10,11,11a,11b,12,13,13a-octadecahydro-2H-cyclopenta[a]chrysen-9-yl)oxy)-2,2-dimethyl-4-oxobutanoic acid]: the EC50 stood at 6.3 nM.

On to `CC(C)C1=C2[C@H]3CC[C@@H]4[C@@]5(C)CC[C@H](OC(=O)CC(C)(C)C(=O)O)C(C)(C)[C@@H]5CC[C@@]4(C)[C@]3(C)CC[C@@]2([C@H](O)CNCC2CCCCC2)CC1` [Example 67, 4-(((3aS,5aR,5bR,7aR,9S,11aR,11bR,13aS)-3a-((S)-2-((cyclohexylmethyl)amino)-1-hydroxyethyl)-1-isopropyl-5a,5b,8,8,11a-pentamethyl-3,3a,4,5,5a,5b,6,7,7a,8,9,10,11,11a,11b,12,13,13a-octadecahydro-2H-cyclopenta[a]chrysen-9-yl)oxy)-2,2-dimethyl-4-oxobutanoic acid], for which the EC50 turned out to be 136 nM.

In the case of `CC(C)C1=C2[C@H]3CC[C@@H]4[C@@]5(C)CC[C@H](OC(=O)CC(C)(C)C(=O)O)C(C)(C)[C@@H]5CC[C@@]4(C)[C@]3(C)CC[C@@]2([C@@H](O)CN2CCc3ccccc3C2)CC1=O` [Example 63, 4-(((3aR,5aR,5bR,7aR,9S,11aR,11bR,13aS)-3a-((R)-2-(3,4-dihydroisoquinolin-2(1H)-yl)-1-hydroxyethyl)-1-isopropyl-5a,5b,8,8,11a-pentamethyl-2-oxo-3,3a,4,5,5a,5b,6,7,7a,8,9,10,11,11a,11b,12,13,13a-octadecahydro-2H-cyclopenta[a]chrysen-9-yl)oxy)-2,2-dimethyl-4-oxobutanoic acid], the EC50 worked out at 3.2 nM.

In the case of `CC(C)C1=C2[C@H]3CC[C@@H]4[C@@]5(C)CC[C@H](OC(=O)CC(C)(C)C(=O)O)C(C)(C)[C@@H]5CC[C@@]4(C)[C@]3(C)CC[C@@]2([C@H](O)CN2CCc3ccccc3C2)CC1=O` [Example 64, 4-(((3aR,5aR,5bR,7aR,9S,11aR,11bR,13aS)-3a-((S)-2-(3,4-dihydroisoquinolin-2(1H)-yl)-1-hydroxyethyl)-1-isopropyl-5a,5b,8,8,11a-pentamethyl-2-oxo-3,3a,4,5,5a,5b,6,7,7a,8,9,10,11,11a,11b,12,13,13a-octadecahydro-2H-cyclopenta[a]chrysen-9-yl)oxy)-2,2-dimethyl-4-oxobutanoic acid], the EC50 worked out at 7.2 nM.

For the compound `CC(=O)O[C@@H](CNCc1ccc(F)cc1)[C@@]12CC[C@]3(C)[C@H](CC[C@@H]4[C@@]5(C)CC[C@H](OC(=O)CC(C)(C)C(=O)O)C(C)(C)[C@@H]5CC[C@]43C)C1=C(C(C)C)C(=O)C2` [Example 27, 4-(((3aR,5aR,5bR,7aR,9S,11aR,11bR,13aS)-3a-((R)-1-acetoxy-2-((4-fluorobenzyl)amino)ethyl)-1-isopropyl-5a,5b,8,8,11a-pentamethyl-2-oxo-3,3a,4,5,5a,5b,6,7,7a,8,9,10,11,11a,11b,12,13,13a-octadecahydro-2H-cyclopenta[a]chrysen-9-yl)oxy)-2,2-dimethyl-4-oxobutanoic acid], the EC50 came to 8.2 nM.

For `CC(=O)O[C@@H](CNCc1ccccc1)[C@@]12CC[C@]3(C)[C@H](CC[C@@H]4[C@@]5(C)CC[C@H](OC(=O)CC(C)(C)C(=O)O)C(C)(C)[C@@H]5CC[C@]43C)C1=C(C(C)C)C(=O)C2` [Example 52, 4-(((3aR,5aR,5bR,7aR,9S,11aR,11bR,13aS)-3a-((R)-1-Acetoxy-2-(benzylamino)ethyl)-1-isopropyl-5a,5b,8,8,11a-pentamethyl-2-oxo-3,3a,4,5,5a,5b,6,7,7a,8,9,10,11,11a,11b,12,13,13a-octadecahydro-2H-cyclopenta[a]chrysen-9-yl)oxy)-2,2-dimethyl-4-oxobutanoic acid], the EC50 amounted to 4.6 nM.

For the compound `CC(C)C1=C2[C@H]3CC[C@@H]4[C@@]5(C)CC[C@H](OC(=O)CC(C)(C)C(=O)O)C(C)(C)[C@@H]5CC[C@@]4(C)[C@]3(C)CC[C@@]2([C@@H](O)CN2CCN(C)CC2)CC1` (racemic) [Example 65, 4-(((3aS,5aR,5bR,7aR,9S,11aR,11bR,13aS)-3a-((R)-1-hydroxy-2-(4-methylpiperazin-1-yl)ethyl)-1-isopropyl-5a,5b,8,8,11a-pentamethyl-3,3a,4,5,5a,5b,6,7,7a,8,9,10,11,11a,11b,12,13,13a-octadecahydro-2H-cyclopenta[a]chrysen-9-yl)oxy)-2,2-dimethyl-4-oxobutanoic acid], the EC50 was 83.8 nM.
